Data as given in patent publication US20230346961A1, “GLP-1 AND GIP RECEPTOR CO-AGONISTS” (Novo Nordisk A/S, priority 2020, published 2023).
Starred links: 1 amine or outer side, 2 acyl side, 3 side chain; linkers in the order of their positions; H or OH if unused. Non-standard residues stand in square brackets, D forms with d. Residues, ends and D or L forms follow the SMILES beside them. Groups on a side chain read outwards from the residue. *: point of attachment. C18 diacid = O=C(O)CCCCCCCCCCCCCCCCC(=O)*; γGlu = O=C(O)[C@H](CCC(=O)[*:2])N[*:1]; εLys = N[C@@H](CCCCN[*:1])C(=O)[*:2]; AEEA = NCCOCCOCC(=O)O; Aib = CC(C)(N)C(=O)O

What was measured:
human GLP-1 receptor = human GLP-1 receptor (Homo sapiens, UniProt P43220); experiment: cell-based; settings: hGLP-1R
Experimental: (§1) The in vitro functional potency is the measure of target receptor activation in a whole cell assay.
(§2) In vitro functional potency was determined by measuring the response of the target receptor in a reporter gene assay in individual cell lines. […] When the respective receptor is activated, it results in the production of cAMP, which in turn results in expression of the luciferase protein. When assay incubation is completed, luciferase substrate (luciferin) is added resulting in the enzymatic conversion of luciferin to oxyluciferin and producing bioluminescence. The luminescence is measured as the readout for the assay.
(§3) The cells lines used in these assays were BHK cells with BHKTS13 as a parent cell line. The cell lines were derived from a clone containing the CRE luciferase element and were established by further transfection with the respective receptor to obtain the relevant cell line.
(§4) The cells were cultured at 37° C. with 5% CO2 in Cell Culture Medium. They were aliquoted and stored in liquid nitrogen. The cells were kept in continuous culture and were seeded out the day before each assay.
(§5) GLP-1R and GcgR Cell Culture Medium consisted of DMEM medium with 10% FBS, 500 μg/mL G418, and 300 μg/mL hygromycin. GIPR Cell Culture Medium consisted of DMEM medium with 10% FBS, 400 μg/mL G418, and 300 μg/mL hygromycin. Assay Buffer consisted of DMEM w/o phenol red, 10 mM Hepes, 1×Glutamax, 1% ovalbumin, and 0.1% Pluronic F-68 with the addition of HSA at twice the final assay concentration.
(§6) • 1) Cells were plated at 5000 cells/well and incubated overnight in the assay plate. • 2) Cells were washed once in DPBS. • 3) Stocks of the test compounds and reference compounds in concentrations ranging from 100-300 μM were diluted 1:150 in Assay Buffer. Compounds were then diluted 1:10 in column 1 of a 96 deep well dilution plate and then carried across the row creating a 3.5 fold, 12 point dilution curve. • 4) Assay Buffer (50 μl aliquot) with or without HSA was added to each well in the assay plate. • 5) A 50 μl aliquot of compound or blank was transferred from the dilution plate to the assay plate containing the Assay Buffer with or without HSA. • 6) The assay plate was incubated for 3 h in a 5% CO2 incubator at 37° C. 7) The cells were washed once with DPBS. • 8) A 100 μl aliquot of DPBS was added to each well of the assay plate. • 9) A 100 μl aliquot of steadylite plus reagent (light sensitive) was added to each well of the assay plate. • 10) Each assay plate was covered with aluminum foil to protect it from light and shaken at 250 RPM for 30 min at room temperature. • 11) Each assay plate was read in a microtiter plate reader.
(§7) The data from the microtiter plate reader was first regressed in an Excel in order to calculate the x-axis, log scale concentrations based on the individual test compound's stock concentration and the dilutions of the assay. […] The software performs a non-linear regression (log(agonist) vs response). A minimum of two replicates was measured for each sample. The reported values are averages of the replicates.

mouse GLP-1 receptor = target: T1, mouse GLP-1 receptor (Mus musculus, UniProt O35659)
T1 sequence (O35659 22-463): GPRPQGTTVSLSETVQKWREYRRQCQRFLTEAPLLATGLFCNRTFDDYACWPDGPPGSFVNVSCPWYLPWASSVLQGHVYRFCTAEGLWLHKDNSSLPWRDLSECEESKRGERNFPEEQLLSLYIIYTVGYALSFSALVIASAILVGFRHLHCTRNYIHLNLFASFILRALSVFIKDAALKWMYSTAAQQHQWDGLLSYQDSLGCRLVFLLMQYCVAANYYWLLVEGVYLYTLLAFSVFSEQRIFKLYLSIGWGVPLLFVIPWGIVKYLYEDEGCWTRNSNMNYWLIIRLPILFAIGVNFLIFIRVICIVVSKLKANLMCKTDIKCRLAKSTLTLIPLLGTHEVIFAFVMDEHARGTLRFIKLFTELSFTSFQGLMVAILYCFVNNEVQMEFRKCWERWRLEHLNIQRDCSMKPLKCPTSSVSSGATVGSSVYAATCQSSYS

mouse GIP receptor = target: T2, mouse GIP receptor (Mus musculus, UniProt Q0P543); experiment: cell-based
T2 sequence (Q0P543 19-460): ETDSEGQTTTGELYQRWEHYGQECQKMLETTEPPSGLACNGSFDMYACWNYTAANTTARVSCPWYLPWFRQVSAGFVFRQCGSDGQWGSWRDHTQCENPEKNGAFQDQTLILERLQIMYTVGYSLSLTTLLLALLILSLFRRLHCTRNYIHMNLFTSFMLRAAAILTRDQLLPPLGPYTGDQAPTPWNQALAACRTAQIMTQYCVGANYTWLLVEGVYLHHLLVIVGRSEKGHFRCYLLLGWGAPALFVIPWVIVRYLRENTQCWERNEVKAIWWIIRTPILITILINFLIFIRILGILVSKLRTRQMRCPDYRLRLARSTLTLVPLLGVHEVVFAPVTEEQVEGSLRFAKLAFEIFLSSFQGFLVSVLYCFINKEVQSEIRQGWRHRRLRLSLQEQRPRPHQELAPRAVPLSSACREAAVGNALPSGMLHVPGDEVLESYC
Experimental: as §1, §2, §3, §4, §5, §6, §7

human GLP-1 receptor, sequence (P43220 24-463): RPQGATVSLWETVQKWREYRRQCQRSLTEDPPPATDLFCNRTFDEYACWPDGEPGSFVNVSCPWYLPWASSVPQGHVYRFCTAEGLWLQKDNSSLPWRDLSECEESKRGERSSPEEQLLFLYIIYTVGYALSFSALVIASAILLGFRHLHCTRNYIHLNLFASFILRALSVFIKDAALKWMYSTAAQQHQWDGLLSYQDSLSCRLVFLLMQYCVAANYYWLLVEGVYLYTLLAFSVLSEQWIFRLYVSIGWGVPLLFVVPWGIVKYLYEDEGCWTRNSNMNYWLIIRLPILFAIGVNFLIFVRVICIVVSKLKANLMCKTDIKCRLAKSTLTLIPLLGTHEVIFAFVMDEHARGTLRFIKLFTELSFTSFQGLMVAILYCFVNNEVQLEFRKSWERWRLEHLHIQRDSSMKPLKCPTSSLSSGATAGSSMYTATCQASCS

Row | SMILES | EC50 (human GLP-1 receptor; CRE Luc 0% HSA EC50, 0% HSA) [nM] | EC50 (human GLP-1 receptor; CRE Luc 1% HSA EC50, 1% HSA) [nM] | EC50 (mouse GLP-1 receptor) [nM] | EC50 (mouse GIP receptor) [nM]
1 | CC[C@H](C)[C@H](NC(=O)[C@H](CO)NC(=O)[C@H](Cc1ccc(O)cc1)NC(=O)[C@H](CC(=O)O)NC(=O)[C@H](CO)NC(=O)[C@@H](NC(=O)[C@H](Cc1ccccc1)NC(=O)[C@@H](NC(=O)CNC(=O)[C@H](CCC(=O)O)NC(=O)C(C)(C)NC(=O)[C@@H](N)Cc1ccc(O)cc1)[C@@H](C)O)[C@@H](C)O)C(=O)N[C@@H](Cc1ccc(O)cc1)C(=O)N[C@@H](CC(C)C)C(=O)N[C@@H](CC(=O)O)C(=O)N[C@@H](CCCCN)C(=O)N[C@@H](CCC(N)=O)C(=O)N[C@@H](C)C(=O)N[C@@H](C)C(=O)NC(C)(C)C(=O)N[C@@H](CCC(=O)O)C(=O)N[C@@H](Cc1ccccc1)C(=O)N[C@H](C(=O)N[C@@H](CC(N)=O)C(=O)N[C@@H](Cc1c[nH]c2ccccc12)C(=O)N[C@@H](CC(C)C)C(=O)N[C@@H](CC(C)C)C(=O)N[C@@H](C)C(=O)NCC(=O)NCC(=O)N1CCC[C@H]1C(=O)N[C@@H](CO)C(=O)N[C@@H](CO)C(=O)NCC(=O)N[C@@H](C)C(=O)N1CCC[C@H]1C(=O)N1CCC[C@H]1C(=O)N1CCC[C@H]1C(=O)N[C@@H](CO)C(=O)N[C@@H](CCCCNC(=O)CCCCCCCCCCCCCCCCC(=O)O)C(N)=O)C(C)C [Compound 2] | 0.0675 | 0.439 | – | –
2 | CC[C@H](C)[C@H](NC(=O)[C@H](CO)NC(=O)[C@H](Cc1ccc(O)cc1)NC(=O)[C@H](CC(=O)O)NC(=O)[C@H](CO)NC(=O)[C@@H](NC(=O)[C@H](Cc1ccccc1)NC(=O)[C@@H](NC(=O)CNC(=O)[C@H](CCC(=O)O)NC(=O)C(C)(C)NC(=O)[C@@H](N)Cc1ccc(O)cc1)[C@@H](C)O)[C@@H](C)O)C(=O)N[C@@H](Cc1ccc(O)cc1)C(=O)N[C@@H](CC(C)C)C(=O)N[C@@H](CC(=O)O)C(=O)N[C@@H](CCCCN)C(=O)N[C@@H](CCC(N)=O)C(=O)N[C@@H](C)C(=O)N[C@@H](C)C(=O)NC(C)(C)C(=O)N[C@@H](CCC(=O)O)C(=O)N[C@@H](Cc1ccccc1)C(=O)N[C@H](C(=O)N[C@@H](CC(N)=O)C(=O)N[C@@H](Cc1c[nH]c2ccccc12)C(=O)N[C@@H](CC(C)C)C(=O)N[C@@H](CC(C)C)C(=O)N[C@@H](C)C(=O)NCC(=O)NCC(=O)N1CCC[C@H]1C(=O)N[C@@H](CO)C(=O)N[C@@H](CO)C(=O)NCC(=O)N[C@@H](C)C(=O)N1CCC[C@H]1C(=O)N1CCC[C@H]1C(=O)N1CCC[C@H]1C(=O)N[C@@H](CO)C(=O)N[C@@H](CCCCNC(=O)COCCOCCNC(=O)COCCOCCNC(=O)CC[C@H](NC(=O)CCCCCCCCCCCCCCCCC(=O)O)C(=O)O)C(N)=O)C(C)C [Compound 3] | 0.0134 | 0.606 | – | –
3 | CC[C@H](C)[C@H](NC(=O)[C@H](CO)NC(=O)[C@H](Cc1ccc(O)cc1)NC(=O)[C@H](CC(=O)O)NC(=O)[C@H](CO)NC(=O)[C@@H](NC(=O)[C@H](Cc1ccccc1)NC(=O)[C@@H](NC(=O)CNC(=O)[C@H](CCC(=O)O)NC(=O)C(C)(C)NC(=O)[C@@H](N)Cc1ccc(O)cc1)[C@@H](C)O)[C@@H](C)O)C(=O)N[C@@H](Cc1ccc(O)cc1)C(=O)N[C@@H](CC(C)C)C(=O)N[C@@H](CC(=O)O)C(=O)N[C@@H](CCCCN)C(=O)N[C@@H](CCCCNC(=O)COCCOCCNC(=O)COCCOCCNC(=O)CC[C@H](NC(=O)CCCCCCCCCCCCCCCCC(=O)O)C(=O)O)C(=O)N[C@@H](C)C(=O)N[C@@H](C)C(=O)NC(C)(C)C(=O)N[C@@H](CCC(=O)O)C(=O)N[C@@H](Cc1ccccc1)C(=O)N[C@H](C(=O)N[C@@H](CC(N)=O)C(=O)N[C@@H](Cc1c[nH]c2ccccc12)C(=O)N[C@@H](CC(C)C)C(=O)N[C@@H](CC(C)C)C(=O)N[C@@H](C)C(=O)NCC(=O)NCC(=O)N1CCC[C@H]1C(=O)N[C@@H](CO)C(=O)N[C@@H](CO)C(=O)NCC(=O)N[C@@H](C)C(=O)N1CCC[C@H]1C(=O)N1CCC[C@H]1C(=O)N1CCC[C@H]1C(=O)N[C@@H](CO)C(N)=O)C(C)C [Compound 4] (H-Y[Aib]EGTFTSDYSIYLDKK([AEEA-AEEA-γGlu-C18 diacid])AA[Aib]EFVNWLLAGGPSSGAPPPS-NH2; N-terminus assumed) | 0.0106 | 0.232 | 0.0039 | 1.55
4 | CC[C@H](C)[C@H](NC(=O)[C@H](CO)NC(=O)[C@H](Cc1ccc(O)cc1)NC(=O)[C@H](CC(=O)O)NC(=O)[C@H](CO)NC(=O)[C@@H](NC(=O)[C@H](Cc1ccccc1)NC(=O)[C@@H](NC(=O)CNC(=O)[C@H](CCC(=O)O)NC(=O)C(C)(C)NC(=O)[C@@H](N)Cc1ccc(O)cc1)[C@@H](C)O)[C@@H](C)O)C(=O)N[C@@H](Cc1ccc(O)cc1)C(=O)N[C@@H](CC(C)C)C(=O)N[C@@H](CC(=O)O)C(=O)N[C@@H](CCCCN)C(=O)N[C@@H](CCC(N)=O)C(=O)N[C@@H](C)C(=O)N[C@@H](C)C(=O)NC(C)(C)C(=O)N[C@@H](CCCCNC(=O)COCCOCCNC(=O)COCCOCCNC(=O)CC[C@H](NC(=O)CCCCCCCCCCCCCCCCC(=O)O)C(=O)O)C(=O)N[C@@H](Cc1ccccc1)C(=O)N[C@H](C(=O)N[C@@H](CC(N)=O)C(=O)N[C@@H](Cc1c[nH]c2ccccc12)C(=O)N[C@@H](CC(C)C)C(=O)N[C@@H](CC(C)C)C(=O)N[C@@H](C)C(=O)NCC(=O)NCC(=O)N1CCC[C@H]1C(=O)N[C@@H](CO)C(=O)N[C@@H](CO)C(=O)NCC(=O)N[C@@H](C)C(=O)N1CCC[C@H]1C(=O)N1CCC[C@H]1C(=O)N1CCC[C@H]1C(=O)N[C@@H](CO)C(N)=O)C(C)C [Compound 5] (H-Y[Aib]EGTFTSDYSIYLDKQAA[Aib]K([AEEA-AEEA-γGlu-C18 diacid])FVNWLLAGGPSSGAPPPS-NH2; N-terminus assumed) | 0.0092 | 0.161 | 0.0025 | 0.523
5 | CC[C@H](C)[C@H](NC(=O)[C@H](CO)NC(=O)[C@H](Cc1ccc(O)cc1)NC(=O)[C@H](CC(=O)O)NC(=O)[C@H](CO)NC(=O)[C@@H](NC(=O)[C@H](Cc1ccccc1)NC(=O)[C@@H](NC(=O)CNC(=O)[C@H](CCC(=O)O)NC(=O)C(C)(C)NC(=O)[C@@H](N)Cc1ccc(O)cc1)[C@@H](C)O)[C@@H](C)O)C(=O)N[C@@H](Cc1ccc(O)cc1)C(=O)N[C@@H](CC(C)C)C(=O)N[C@@H](CC(=O)O)C(=O)N[C@@H](CCCCN)C(=O)N[C@@H](CCC(N)=O)C(=O)N[C@@H](C)C(=O)N[C@@H](C)C(=O)NC(C)(C)C(=O)N[C@@H](CCCCNC(=O)CC[C@H](NC(=O)CC[C@H](NC(=O)CC[C@H](NC(=O)CCCCCCCCCCCCCCCCC(=O)O)C(=O)O)C(=O)O)C(=O)O)C(=O)N[C@@H](Cc1ccccc1)C(=O)N[C@H](C(=O)N[C@@H](CC(N)=O)C(=O)N[C@@H](Cc1c[nH]c2ccccc12)C(=O)N[C@@H](CC(C)C)C(=O)N[C@@H](CC(C)C)C(=O)N[C@@H](C)C(=O)NCC(=O)NCC(=O)N1CCC[C@H]1C(=O)N[C@@H](CO)C(=O)N[C@@H](CO)C(=O)NCC(=O)N[C@@H](C)C(=O)N1CCC[C@H]1C(=O)N1CCC[C@H]1C(=O)N1CCC[C@H]1C(=O)N[C@@H](CO)C(N)=O)C(C)C [Compound 6] (H-Y[Aib]EGTFTSDYSIYLDKQAA[Aib]K([γGlu-γGlu-γGlu-C18 diacid])FVNWLLAGGPSSGAPPPS-NH2; N-terminus assumed) | 0.0059 | – | 0.0023 | –
6 | CC[C@H](C)[C@H](NC(=O)[C@H](CO)NC(=O)[C@H](Cc1ccc(O)cc1)NC(=O)[C@H](CC(=O)O)NC(=O)[C@H](CO)NC(=O)[C@@H](NC(=O)[C@H](Cc1ccccc1)NC(=O)[C@@H](NC(=O)CNC(=O)[C@H](CCC(=O)O)NC(=O)[C@H](C)NC(=O)[C@@H](Cc1ccc(O)cc1)NC(C)=O)[C@@H](C)O)[C@@H](C)O)C(=O)N[C@@H](Cc1ccc(O)cc1)C(=O)N[C@@H](CC(C)C)C(=O)N[C@@H](CC(=O)O)C(=O)N[C@@H](CCCCN)C(=O)N[C@@H](CCC(N)=O)C(=O)N[C@@H](C)C(=O)N[C@@H](C)C(=O)NC(C)(C)C(=O)N[C@@H](CCCCNC(=O)[C@@H](N)CCCCNC(=O)[C@@H](N)CCCCNC(=O)CC[C@H](NC(=O)CCCCCCCCCCCCCCCCC(=O)O)C(=O)O)C(=O)N[C@@H](Cc1ccccc1)C(=O)N[C@H](C(=O)N[C@@H](CC(N)=O)C(=O)N[C@@H](Cc1c[nH]c2ccccc12)C(=O)N[C@@H](CC(C)C)C(=O)N[C@@H](CC(C)C)C(=O)N[C@@H](C)C(=O)NCC(=O)NCC(=O)N1CCC[C@H]1C(=O)N[C@@H](CO)C(=O)N[C@@H](CO)C(=O)NCC(=O)N[C@@H](C)C(=O)N1CCC[C@H]1C(=O)N1CCC[C@H]1C(=O)N1CCC[C@H]1C(=O)N[C@@H](CO)C(N)=O)C(C)C [Compound 8] (Ac-[dY]AEGTFTSDYSIYLDKQAA[Aib]K([εLys-εLys-γGlu-C18 diacid])FVNWLLAGGPSSGAPPPS-NH2) | – | – | 0.017 | –
